Measured values as given in ChEMBL document CHEMBL4425115, “Discovery and Structure-Activity Relationship (SAR) of a Series of Ethanolamine-Based Direct-Acting Agonists of Sphingosine-1-phosphate (S1P1)” (J Med Chem, 2016).
≈ marks a conversion by molar mass, not a printed value.

Key:
[1] = Cmax in mouse plasma at 1 mg/kg, iv or 1 mg/kg, po; format: ADME, organism-based
[2] = Cmax in rat plasma at 2 mg/kg, iv or 5 mg/kg, po; format: ADME, organism-based
[3] = Cmax in cynomolgus monkey plasma at 1 mg/kg, iv or 1 mg/kg, po; format: ADME, organism-based, Macaca fascicularis
[4] = Cmax in dog plasma at 1 mg/kg, iv or 1 mg/kg, po; format: ADME, organism-based, Canis lupus familiaris
[5] = Tmax in mouse at 1 mg/kg, iv or 1 mg/kg, po; format: ADME, organism-based; conditions: in vivo
[6] = Tmax in rat at 2 mg/kg, iv or 5 mg/kg, po; format: ADME, organism-based; conditions: in vivo
[7] = Tmax in cynomolgus monkey at 1 mg/kg, iv or 1 mg/kg, po; format: ADME, organism-based, Macaca fascicularis; conditions: in vivo
[8] = Tmax in dog at 1 mg/kg, iv or 1 mg/kg, po; format: ADME, organism-based, Canis lupus familiaris; conditions: in vivo
[9] = AUC (0 to 24 hrs) in mouse at 1 mg/kg, iv or 1 mg/kg, po; format: ADME, organism-based; conditions: in vivo
[10] = AUC (0 to 24 hrs) in rat at 2 mg/kg, iv or 5 mg/kg, po; format: ADME, organism-based; conditions: in vivo
[11] = AUC (0 to 24 hrs) in cynomolgus monkey at 1 mg/kg, iv or 1 mg/kg, po; format: ADME, organism-based, Macaca fascicularis; conditions: in vivo
[12] = AUC (0 to 24 hrs) in dog at 1 mg/kg, iv or 1 mg/kg, po; format: ADME, organism-based, Canis lupus familiaris; conditions: in vivo
[13] = Clearance in mouse at 1 mg/kg, iv; format: ADME, organism-based; conditions: in vivo
[14] = Clearance in rat at 2 mg/kg, iv; format: ADME, organism-based; conditions: in vivo
[15] = Clearance in cynomolgus monkey at 1 mg/kg, iv; format: ADME, organism-based, Macaca fascicularis; conditions: in vivo
[16] = Clearance in dog at 1 mg/kg, iv; format: ADME, organism-based, Canis lupus familiaris; conditions: in vivo
[17] = Volume of distribution at steady state in mouse at 1 mg/kg, iv or 1 mg/kg, po; format: ADME, organism-based; conditions: in vivo
[18] = Volume of distribution at steady state in rat at 2 mg/kg, iv or 5 mg/kg, po; format: ADME, organism-based; conditions: in vivo
[19] = Volume of distribution at steady state in cynomolgus monkey at 1 mg/kg, iv or 1 mg/kg, po; format: ADME, organism-based, Macaca fascicularis; conditions: in vivo
[20] = Volume of distribution at steady state in dog at 1 mg/kg, iv or 1 mg/kg, po; format: ADME, organism-based, Canis lupus familiaris; conditions: in vivo
[21] = Half life in mouse at 1 mg/kg, iv; format: ADME, organism-based; conditions: in vivo
[22] = Half life in rat at 2 mg/kg, iv; format: ADME, organism-based; conditions: in vivo
[23] = Half life in cynomolgus monkey at 1 mg/kg, iv; format: ADME, organism-based, Macaca fascicularis; conditions: in vivo
[24] = Half life in dog at 1 mg/kg, iv; format: ADME, organism-based, Canis lupus familiaris; conditions: in vivo
[25] = Oral bioavailability in mouse at 1 mg/kg; format: ADME, organism-based; conditions: in vivo
[26] = Oral bioavailability in rat at 5 mg/kg; format: ADME, organism-based; conditions: in vivo
[27] = Oral bioavailability in cynomolgus monkey at 1 mg/kg; format: ADME, organism-based, Macaca fascicularis; conditions: in vivo
[28] = Oral bioavailability in dog at 1 mg/kg; format: ADME, organism-based, Canis lupus familiaris; conditions: in vivo
[29] = Metabolic stability in mouse liver microsomes assessed as compound remaining; format: ADME, Microsome
[30] = Metabolic stability in rat liver microsomes assessed as compound remaining; format: ADME, Microsome
[31] = Metabolic stability in cynomolgus monkey liver microsomes assessed as compound remaining; format: ADME, Macaca fascicularis, Microsome
[32] = Metabolic stability in dog liver microsomes assessed as compound remaining; format: ADME, Canis lupus familiaris, Microsome
[33] = Metabolic stability in human liver microsomes assessed as compound remaining; format: ADME, Microsome
[34] = Plasma concentration in Lewis rat at 3 mg/kg, po measured after 4 hrs; format: ADME, organism-based
[35] = Plasma concentration in Lewis rat at 3 mg/kg, po measured after 24 hrs; format: ADME, organism-based
[36] = Cmax in dog plasma at 0.5 mg/kg, iv or 0.5 mg/kg, po; format: ADME, organism-based, Canis lupus familiaris
[37] = Tmax in dog at 0.5 mg/kg, iv or 0.5 mg/kg, po; format: ADME, organism-based, Canis lupus familiaris; conditions: in vivo
[38] = AUC (0 to 24 hrs) in dog at 0.5 mg/kg, iv or 0.5 mg/kg, po; format: ADME, organism-based, Canis lupus familiaris; conditions: in vivo
[39] = Clearance in dog at 0.5 mg/kg, iv; format: ADME, organism-based, Canis lupus familiaris; conditions: in vivo
[40] = Volume of distribution at steady state in dog at 0.5 mg/kg, iv or 0.5 mg/kg, po; format: ADME, organism-based, Canis lupus familiaris; conditions: in vivo
[41] = Half life in dog at 0.5 mg/kg, iv; format: ADME, organism-based, Canis lupus familiaris; conditions: in vivo
[42] = Oral bioavailability in dog at 0.5 mg/kg; format: ADME, organism-based, Canis lupus familiaris; conditions: in vivo
[43] = Aqueous solubility of the compound at pH 1; format: physicochemical
[44] = Aqueous solubility of the compound at pH 6.5; format: physicochemical
[45] = Permeability of the compound at pH 7.4 by PAMPA assay; format: ADME; conditions: read-out: permeability
[46] = Dissociation constant, pKa of the compound; format: physicochemical
[47] = Lipophilicity, log D of the compound at pH 6.5; format: physicochemical; conditions: buffer
in vivo = conditions: Lewis, rat, plasma, po, 30 mg/kg
[48] = Plasma concentration in Lewis rat at 10 mg/kg, po measured after 4 hrs; format: ADME, organism-based
[49] = Plasma concentration in Lewis rat at 10 mg/kg, po measured after 24 hrs; format: ADME, organism-based
[50] = Half life in human administered as single dose; format: ADME

Compound	Cmax [1] [nM]	Cmax [2] [nM]	Cmax [3] [nM]	Tmax [5] [h]	Tmax [6] [h]	Tmax [7] [h]	AUC(0-t) [9] [µM·h]	AUC(0-t) [10] [µM·h]	AUC(0-t) [11] [µM·h]	CL [13] [mL/min/kg]	CL [14] [mL/min/kg]	CL [15] [mL/min/kg]	Vdss [17] [L/kg]	Vdss [18] [L/kg]	Vdss [19] [L/kg]	t1/2 [21] [h]	t1/2 [22] [h]	t1/2 [23] [h]	bioavailability [25] [%]	bioavailability [26] [%]	also measured
CCCc1c(-c2nc(-c3ccc(C(O)CN4CCC[C@H](CC(=O)O)C4)cc3)no2)noc1-c1ccccc1 (some centres not stated)	–	–	–	–	–	–	–	–	–	–	–	–	–	–	–	–	–	–	–	–	concentration at 4 h [34]: 685 nM; concentration at 24 h [35]: 40 nM
CCCc1c(-c2nc(-c3ccc(C(O)CNCCC(=O)O)cc3)no2)noc1-c1ccccc1 (configuration not stated)	–	–	–	–	–	–	–	–	–	–	–	–	–	–	–	–	–	–	–	–	concentration at 4 h (in vivo): 142 nM
CCCc1c(-c2nc(-c3ccc(C(O)CN4CCC[C@H](C(=O)O)C4)cc3)no2)noc1-c1ccccc1 (some centres not stated)	–	–	–	–	–	–	–	–	–	–	–	–	–	–	–	–	–	–	–	–	concentration at 4 h [48]: 1600 nM; concentration at 24 h [49]: 38 nM
CCCCCCCCc1ccc(CCC(N)(CO)CO)cc1 [FINGOLIMOD]	–	–	–	–	–	–	–	–	–	–	–	–	–	–	–	–	–	–	–	–	half-life [50]: 144 to 216 h

Second part, led by results:

Cmax [1] [nM]	Cmax [2] [nM]	Cmax [3] [nM]	Tmax [5] [h]	Tmax [6] [h]	Tmax [7] [h]	AUC(0-t) [9] [µM·h]	AUC(0-t) [10] [µM·h]	AUC(0-t) [11] [µM·h]	CL [13] [mL/min/kg]	CL [14] [mL/min/kg]	CL [15] [mL/min/kg]	Vdss [17] [L/kg]	Vdss [18] [L/kg]	Vdss [19] [L/kg]	t1/2 [21] [h]	t1/2 [22] [h]	t1/2 [23] [h]	bioavailability [25] [%]	bioavailability [26] [%]	Compound	also measured
45000	5300	1100	1	3.3	4	362	60	17	100	1700	700	0.1	1.2	1.8	15	9	33	66	76	O=C(O)[C@H]1CCCN(C[C@@H](O)c2ccc(-c3noc(-c4onc(-c5ccccc5)c4C(F)(F)F)n3)cc2)C1	Cmax [4]: 840 nM; Tmax [8]: 0.8 h; AUC(0-t) [12]: 1.3 µM·h; CL [16]: 1400 mL/min/kg; Vdss [20]: 1.4 L/kg; t1/2 [24]: 12 h; bioavailability [27]: 88%; bioavailability [28]: 74%; Stability [29]: > 98%; Stability [30]: > 98%; Stability [31]: > 98%; Stability [32]: > 98%; Stability [33]: > 98%
44000	4700	1500	0.5	3.7	10	315	66	26	100	1000	500	0.2	2.2	1.1	23	28	27	62	87	O=C(O)C[C@H]1CCCN(C[C@@H](O)c2ccc(-c3noc(-c4onc(-c5ccccc5)c4C(F)(F)F)n3)cc2)C1	bioavailability [27]: 90%; Cmax [36]: 489000 nM; Tmax [37]: 4 h; AUC(0-t) [38]: 7.8 µM·h; CL [39]: 1300 mL/min/kg; Vdss [40]: 1.8 L/kg; t1/2 [41]: 24 h; bioavailability [42]: 90%; Stability [29]: > 98%; Stability [30]: > 98%; Stability [31]: > 98%; Stability [32]: > 98%; solubility [43]: > 850 µg/mL; solubility [44]: 229 µg/mL (≈ 422 µM); Papp [45]: 29.5 ×10⁻⁶ cm/s; pKa [46]: 8.8; logD [47]: 3.94; Stability [33]: > 98%
